Test results published in paper PMC7778606, “Development of the phenylpyrazolo[3,4-d]pyrimidine-based, insulin-like growth factor receptor/Src/AXL-targeting small molecule kinase inhibitor” (Theranostics, 2021).

Tests used:
H522 cells = experiment: MTT assay, viability of H522 cells; format: cell-based; details: Homo sapiens, NCI-H522, 72 h, three days, read-out: IC50 against the viability
Protocol: (§1) Cells were seeded into 96-well plates at a density of 1-2 × 10^3 cells/well and incubated for 24 h. Cells were treated with vehicle or various concentrations of test compounds for two (PC9 and PC9/ER cells) or three (other cells) days. Cells were further incubated with MTT solution (final concentration of 500 μg/mL) for 4 h at 37 °C. The formazan products were dissolved in dimethyl sulfoxide (DMSO), and the absorbance was measured at 570 nm. The data are presented as a percentage of the control group.

MAP3K4 = molecular target: T1, MAP3K4 (Homo sapiens, UniProt Q9Y6R4); experiment: KINOMEscan competition binding assay; details: LL6 at 10 μM; read-out: Percent Control
T1 construct: purchased DiscoverX KINOMEscan
Protocol: (§2) Kd values were obtained by KINOMEscan from DiscoverX (San Diego, CA, USA). To briefly summarize, Kd was measured by a competition binding assay that quantitatively measures the ability of a compound to compete with an immobilized ligand. […] Dose response curves of 11 points are obtained for Kd values, which are measured in duplicate. See more details in the cited references [39]-[42] and see also at www.discoverx.com.

PIM3 = molecular target: T2, PIM3 (Homo sapiens, UniProt Q86V86); experiment: KINOMEscan competition binding assay; details: LL6 at 10 μM; read-out: Percent Control
T2 construct: purchased DiscoverX KINOMEscan
Protocol: as §2

MAPKAPK2 = molecular target: T3, MAPKAPK2 (Homo sapiens, UniProt P49137); experiment: KINOMEscan competition binding assay; details: LL6 at 10 μM; read-out: Percent Control
T3 construct: purchased DiscoverX KINOMEscan
T3 sequence (P49137 whole entry): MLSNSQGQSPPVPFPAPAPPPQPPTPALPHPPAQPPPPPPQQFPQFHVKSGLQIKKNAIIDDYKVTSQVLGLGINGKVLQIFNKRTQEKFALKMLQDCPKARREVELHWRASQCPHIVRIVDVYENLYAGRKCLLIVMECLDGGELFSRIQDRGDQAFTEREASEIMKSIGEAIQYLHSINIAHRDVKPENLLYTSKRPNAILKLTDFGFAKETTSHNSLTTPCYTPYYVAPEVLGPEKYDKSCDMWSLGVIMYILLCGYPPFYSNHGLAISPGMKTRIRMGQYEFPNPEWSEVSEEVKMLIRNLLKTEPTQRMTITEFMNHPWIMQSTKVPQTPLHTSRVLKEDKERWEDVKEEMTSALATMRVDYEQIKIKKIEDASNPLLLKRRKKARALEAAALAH
Protocol: as §2

RAF1 = molecular target: T4, RAF1 (Homo sapiens, UniProt P04049); experiment: KINOMEscan competition binding assay; details: LL6 at 10 μM; read-out: Percent Control
T4 construct: purchased DiscoverX KINOMEscan
T4 sequence (P04049 whole entry): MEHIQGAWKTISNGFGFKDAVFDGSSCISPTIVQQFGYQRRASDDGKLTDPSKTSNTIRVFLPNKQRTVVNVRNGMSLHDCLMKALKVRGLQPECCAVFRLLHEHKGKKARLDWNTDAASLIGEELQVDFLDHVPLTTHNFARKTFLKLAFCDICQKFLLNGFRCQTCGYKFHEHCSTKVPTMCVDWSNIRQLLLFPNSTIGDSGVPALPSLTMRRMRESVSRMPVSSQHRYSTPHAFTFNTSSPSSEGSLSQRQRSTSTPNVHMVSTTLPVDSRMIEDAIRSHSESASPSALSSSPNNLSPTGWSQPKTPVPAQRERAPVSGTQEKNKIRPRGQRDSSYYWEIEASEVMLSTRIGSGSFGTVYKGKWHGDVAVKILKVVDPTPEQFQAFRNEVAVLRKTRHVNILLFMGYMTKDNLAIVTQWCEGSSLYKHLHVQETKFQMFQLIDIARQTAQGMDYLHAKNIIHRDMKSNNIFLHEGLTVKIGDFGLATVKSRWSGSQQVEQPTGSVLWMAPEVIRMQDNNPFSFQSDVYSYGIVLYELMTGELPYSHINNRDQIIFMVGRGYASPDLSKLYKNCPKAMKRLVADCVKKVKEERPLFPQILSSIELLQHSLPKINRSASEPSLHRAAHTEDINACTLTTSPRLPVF
Protocol: as §2

DCAMKL1 = molecular target: T5, DCAMKL1 (Homo sapiens, UniProt O15075); experiment: KINOMEscan competition binding assay; details: LL6 at 10 μM; read-out: Percent Control
T5 construct: purchased DiscoverX KINOMEscan
T5 sequence (O15075 whole entry): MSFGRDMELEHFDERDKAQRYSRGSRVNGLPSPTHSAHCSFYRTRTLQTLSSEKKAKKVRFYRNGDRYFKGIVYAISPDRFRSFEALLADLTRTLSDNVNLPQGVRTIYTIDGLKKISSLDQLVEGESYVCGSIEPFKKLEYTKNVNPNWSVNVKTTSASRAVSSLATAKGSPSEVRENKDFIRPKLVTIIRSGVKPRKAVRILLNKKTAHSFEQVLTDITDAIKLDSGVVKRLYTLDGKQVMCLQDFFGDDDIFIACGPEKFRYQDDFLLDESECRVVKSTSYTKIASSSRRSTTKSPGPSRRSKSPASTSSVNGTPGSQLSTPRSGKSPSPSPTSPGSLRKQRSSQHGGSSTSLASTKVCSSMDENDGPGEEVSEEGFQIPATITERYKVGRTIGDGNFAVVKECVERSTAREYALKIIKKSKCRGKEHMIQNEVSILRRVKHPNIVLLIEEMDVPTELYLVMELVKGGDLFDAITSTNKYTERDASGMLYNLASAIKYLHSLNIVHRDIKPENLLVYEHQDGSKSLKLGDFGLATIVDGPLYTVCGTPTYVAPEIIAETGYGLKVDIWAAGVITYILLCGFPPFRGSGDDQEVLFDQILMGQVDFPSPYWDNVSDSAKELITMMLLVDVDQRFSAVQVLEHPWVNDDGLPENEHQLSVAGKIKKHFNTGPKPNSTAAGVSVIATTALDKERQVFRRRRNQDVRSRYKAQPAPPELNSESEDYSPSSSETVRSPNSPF
Protocol: as §2

LKB1 = molecular target: T6, LKB1 (Homo sapiens, UniProt Q15831); experiment: KINOMEscan competition binding assay; details: LL6 at 10 μM; read-out: Percent Control
T6 construct: purchased DiscoverX KINOMEscan
T6 sequence (Q15831 whole entry): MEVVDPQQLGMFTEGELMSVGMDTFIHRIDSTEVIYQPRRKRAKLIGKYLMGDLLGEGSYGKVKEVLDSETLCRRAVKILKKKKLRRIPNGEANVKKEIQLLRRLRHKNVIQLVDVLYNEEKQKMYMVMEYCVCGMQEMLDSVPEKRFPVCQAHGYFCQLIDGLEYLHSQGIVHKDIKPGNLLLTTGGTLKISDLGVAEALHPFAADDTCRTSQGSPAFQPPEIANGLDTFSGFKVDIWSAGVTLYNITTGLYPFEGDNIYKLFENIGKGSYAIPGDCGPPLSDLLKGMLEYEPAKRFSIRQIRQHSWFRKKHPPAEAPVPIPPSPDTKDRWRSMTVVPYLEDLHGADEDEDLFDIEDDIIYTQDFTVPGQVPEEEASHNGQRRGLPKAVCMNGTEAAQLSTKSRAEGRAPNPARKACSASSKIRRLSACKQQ
Protocol: as §2

DYRK1B = molecular target: T7, DYRK1B (Homo sapiens, UniProt Q9Y463); experiment: KINOMEscan competition binding assay; details: LL6 at 10 μM; read-out: Percent Control
T7 construct: purchased DiscoverX KINOMEscan
Protocol: as §2

FLT3 = molecular target: T8, FLT3 (Homo sapiens, UniProt P36888); experiment: KINOMEscan competition binding assay; details: LL6 at 10 μM; read-out: Percent Control
T8 construct: purchased DiscoverX KINOMEscan
T8 sequence (P36888 27-993): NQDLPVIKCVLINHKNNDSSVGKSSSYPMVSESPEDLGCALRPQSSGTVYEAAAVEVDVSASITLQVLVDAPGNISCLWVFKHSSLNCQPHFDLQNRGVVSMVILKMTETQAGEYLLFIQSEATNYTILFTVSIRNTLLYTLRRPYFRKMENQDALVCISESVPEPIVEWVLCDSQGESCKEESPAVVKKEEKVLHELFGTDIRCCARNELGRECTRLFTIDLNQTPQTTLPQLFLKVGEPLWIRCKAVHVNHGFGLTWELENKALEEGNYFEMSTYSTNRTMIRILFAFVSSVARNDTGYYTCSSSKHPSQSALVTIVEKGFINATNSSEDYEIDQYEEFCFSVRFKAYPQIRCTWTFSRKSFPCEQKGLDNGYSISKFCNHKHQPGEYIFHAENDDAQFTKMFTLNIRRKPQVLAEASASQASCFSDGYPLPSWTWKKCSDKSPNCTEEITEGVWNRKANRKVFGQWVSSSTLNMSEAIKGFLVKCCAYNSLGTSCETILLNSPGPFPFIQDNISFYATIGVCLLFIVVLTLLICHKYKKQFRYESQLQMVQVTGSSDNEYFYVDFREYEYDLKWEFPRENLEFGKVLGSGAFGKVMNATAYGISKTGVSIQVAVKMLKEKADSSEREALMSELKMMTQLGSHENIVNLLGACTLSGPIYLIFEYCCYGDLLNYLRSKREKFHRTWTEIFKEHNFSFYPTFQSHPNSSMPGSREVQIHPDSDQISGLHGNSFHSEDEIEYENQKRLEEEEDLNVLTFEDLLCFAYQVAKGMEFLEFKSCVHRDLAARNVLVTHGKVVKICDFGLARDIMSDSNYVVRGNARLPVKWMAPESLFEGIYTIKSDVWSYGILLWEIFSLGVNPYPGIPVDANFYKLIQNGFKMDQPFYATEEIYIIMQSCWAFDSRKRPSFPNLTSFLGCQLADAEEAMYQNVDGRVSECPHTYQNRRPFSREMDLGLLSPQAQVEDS
Protocol: as §2

ERK1 = molecular target: T9, ERK1 (Homo sapiens, UniProt P27361); experiment: KINOMEscan competition binding assay; details: LL6 at 10 μM; read-out: Percent Control
T9 construct: purchased DiscoverX KINOMEscan
Protocol: as §2

PIK3CG = molecular target: T10, PIK3CG (Homo sapiens, UniProt P48736); experiment: KINOMEscan competition binding assay; details: LL6 at 10 μM; read-out: Percent Control
T10 construct: purchased DiscoverX KINOMEscan
Protocol: as §2

FAK = molecular target: T11, FAK (Homo sapiens, UniProt Q05397); experiment: KINOMEscan competition binding assay; details: LL6 at 10 μM; read-out: Percent Control
T11 construct: purchased DiscoverX KINOMEscan
T11 sequence (Q05397 whole entry): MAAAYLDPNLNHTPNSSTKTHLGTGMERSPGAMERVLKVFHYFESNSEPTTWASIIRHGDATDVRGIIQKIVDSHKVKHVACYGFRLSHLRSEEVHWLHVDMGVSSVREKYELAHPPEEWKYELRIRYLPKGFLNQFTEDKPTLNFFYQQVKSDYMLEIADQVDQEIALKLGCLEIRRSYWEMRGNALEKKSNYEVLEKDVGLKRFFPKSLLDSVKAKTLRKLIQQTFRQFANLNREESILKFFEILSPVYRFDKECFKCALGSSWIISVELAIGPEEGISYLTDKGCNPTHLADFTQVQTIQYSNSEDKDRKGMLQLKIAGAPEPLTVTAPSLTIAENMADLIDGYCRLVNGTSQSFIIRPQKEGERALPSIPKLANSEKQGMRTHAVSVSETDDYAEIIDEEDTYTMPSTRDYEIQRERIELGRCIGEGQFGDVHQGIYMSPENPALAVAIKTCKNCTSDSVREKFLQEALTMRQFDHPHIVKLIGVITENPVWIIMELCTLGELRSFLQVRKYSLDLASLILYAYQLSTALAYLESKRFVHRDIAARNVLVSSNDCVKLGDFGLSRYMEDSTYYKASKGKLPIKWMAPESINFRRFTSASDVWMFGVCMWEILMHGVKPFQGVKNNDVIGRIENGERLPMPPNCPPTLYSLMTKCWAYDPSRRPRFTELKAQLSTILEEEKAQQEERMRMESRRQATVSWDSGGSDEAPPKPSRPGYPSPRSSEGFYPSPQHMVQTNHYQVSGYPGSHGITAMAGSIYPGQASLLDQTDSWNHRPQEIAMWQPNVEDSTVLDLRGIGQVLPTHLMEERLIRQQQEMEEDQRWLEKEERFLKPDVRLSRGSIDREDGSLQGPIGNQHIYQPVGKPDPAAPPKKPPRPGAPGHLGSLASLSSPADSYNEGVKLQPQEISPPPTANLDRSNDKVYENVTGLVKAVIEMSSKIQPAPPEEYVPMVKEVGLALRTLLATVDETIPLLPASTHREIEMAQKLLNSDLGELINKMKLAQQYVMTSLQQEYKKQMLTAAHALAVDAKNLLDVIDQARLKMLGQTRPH
Protocol: as §2

[1] = molecular target: T12, JAK2(JH1domain-catalytic) (Homo sapiens, UniProt O60674); experiment: KINOMEscan competition binding assay; details: LL6 at 10 μM; read-out: Percent Control
T12 construct: JAK2(JH1domain-catalytic); purchased DiscoverX KINOMEscan
T12 sequence (O60674 849-1124 limits assumed): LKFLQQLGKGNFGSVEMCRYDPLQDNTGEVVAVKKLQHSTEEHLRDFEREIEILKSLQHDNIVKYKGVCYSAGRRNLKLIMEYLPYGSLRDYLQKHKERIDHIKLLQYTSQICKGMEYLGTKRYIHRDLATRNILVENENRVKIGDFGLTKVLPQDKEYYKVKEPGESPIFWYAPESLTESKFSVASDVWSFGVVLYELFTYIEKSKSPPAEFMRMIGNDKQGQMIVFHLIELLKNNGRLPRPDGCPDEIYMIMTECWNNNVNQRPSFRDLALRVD
Protocol: as §2

H1944 cells = experiment: MTT assay, viability of H1944 cells; format: cell-based; details: Homo sapiens, NCI-H1944, 72 h, three days, read-out: IC50 against the viability
Protocol: as §1

H460/PmR cells = experiment: MTT assay, viability of pemetrexed-resistant H460/PmR cells; format: cell-based; details: Homo sapiens, NCI-H460, 72 h, three days, read-out: IC50 against the viability
Excerpt: (§3) Human lung cancer cell lines (A549, H1299, H1993, H1944, H226B, H226Br, H460, H522, HCC15, and PC9), a diploid human lung fibroblast cell line (Wi38), and the Lewis lung carcinoma (LLC) cell line were purchased from the American Type Culture Collection (ATCC, Manassas, VA, USA) or kindly provided by Dr. John V. Heymach (MD Anderson Cancer Center, Houston, TX, USA). Human retinal pigment epithelial (RPE) cells were kindly provided by Dr. Jeong Hun Kim (College of Medicine, Seoul National University, Seoul, Republic of Korea). HT-22 cells were provided by Dr. Dong Gyu Jo (College of Pharmacy, Sungkyunkwan University, Suwon, Republic of Korea). Lung cancer cells were cultured in RPMI 1640 medium supplemented with 10% fetal bovine serum (FBS) and antibiotics (Welgene, Gyeongsan-si, Republic of Korea). LLC, HT-22, and Wi38 cells were maintained in DMEM supplemented with 10% FBS and antibiotics. RPE cells were maintained in DMEM/F12 supplemented with 10% FBS and antibiotics. […]
(§4) Cells were seeded into 96-well plates at a density of 1-2 × 10^3 cells/well and incubated for 24 h. […] The formazan products were dissolved in dimethyl sulfoxide (DMSO), and the absorbance was measured at 570 nm. […]

NSCLC cells = experiment: Transwell migration assay; format: cell-based, human; details: concentration-dependent, 8-12 h after treatment
NSCLC cell lines = experiment: MTT assay, viability of various NSCLC cell lines; format: cell-based; details: Homo sapiens; NSCLC cells with various genetic backgrounds and histologies
Protocol: as §1

97 tested kinases = experiment: Kinome-wide inhibition profiling (KINOMEscan, TREEspot); format: binding, human; details: 10 µM, > 65% inhibition
H226Br cells = experiment: MTT assay, viability of H226Br cells; format: cell-based; details: Homo sapiens, 72 h, three days, read-out: IC50 against the viability
Protocol: as §1

H1299/CsR cells = experiment: MTT assay, viability of cisplatin-resistant H1299/CsR cells; format: cell-based; details: Homo sapiens, NCI-H1299, 72 h, three days, read-out: IC50 against the viability
Excerpt: as §3, §4

HCC15 cells = experiment: MTT assay, viability of HCC15 cells; format: cell-based; details: Homo sapiens, 72 h, three days, read-out: IC50 against the viability
Protocol: as §1

IGF-1R = experiment: KINOMEscan competition binding assay; set-up: species or system human
Protocol: as §2

Src = experiment: KINOMEscan competition binding assay; set-up: species or system human
Protocol: as §2

AXL = experiment: KINOMEscan competition binding assay; set-up: species or system human
Protocol: as §2

H1299 cells = experiment: MTT assay, viability of H1299 cells; format: cell-based; details: Homo sapiens, NCI-H1299, 72 h, three days, read-out: IC50 against the viability
Protocol: as §1

With `Nc1ncnc2c1c(-c1ccc(Cl)cc1)nn2CCn1cc(COc2ccc(Nc3nccc(Nc4cnc5ccccc5c4)n3)cc2)nn1` [LL6] the IC50 (H522 cells) was 3.55 µM, the remaining binding at 10 µM (MAP3K4) was 75% and the remaining binding at 10 µM (PIM3) was 100%. The remaining binding at 10 µM (MAPKAPK2) was 100%, the remaining binding at 10 µM (RAF1) was 82% and the remaining binding at 10 µM (DCAMKL1) was 100%. For the same compound, the remaining binding at 10 µM (LKB1) was 90%, the remaining binding at 10 µM (DYRK1B) was 55% and the remaining binding at 10 µM (FLT3) was 43%. The remaining binding at 10 µM (ERK1) was 100%, the remaining binding at 10 µM (PIK3CG) was 63% and the remaining binding at 10 µM (FAK) was 73%. For the same compound, the remaining binding at 10 µM [1] was 100%, the IC50 (H1944 cells) was 1.02 µM and the IC50 (H460/PmR cells) was 3.64 µM. For the same compound, the “migration of NSCLC cells” value (NSCLC cells) was “effectively suppressed”, the IC50 (NSCLC cell lines) was ~2.5 µM and the S-score (97 tested kinases) was 0.12. It also gave an IC50 (H226Br cells) of 4.32 µM, an IC50 (H1299/CsR cells) of 1.07 µM and an IC50 (HCC15 cells) of 3.73 µM. For the same compound, the Kd (IGF-1R; IGF-1R, 11-point dose response, duplicate) was 5 µM, the inhibition (IGF-1R; IGF-1R, LL6 at 10 µM) was > 65% and the “Percent Control” value (IGF-1R; LL6 at 10 μM) was 16%. For the same compound, the “Percent Control” value (Src; LL6 at 10 μM) was 26%, the Kd (Src; Src, 11-point dose response, duplicate) was 3.4 µM and the inhibition (Src; Src, LL6 at 10 µM) was > 65%. For the same compound, the Kd (AXL; AXL, 11-point dose response, duplicate) was 1.6 µM, the inhibition (AXL; AXL, LL6 at 10 µM) was > 65% and the “Percent Control” value (AXL; LL6 at 10 μM) was 22%. The IC50 (H1299 cells) was 2.93 µM.
